This data set in a line: Pharmacokinetic study of Icotinib hydrochloride and Polymorph Form II of Icotinib phosphate, oral suspension in fasted SD rats. The format is in vivo. To be noted: dose equivalent to 50 mg/kg Icotinib, plasma; for AUC(0-t): read-out: AUC(0-24). The source says:
Drugs and reagents: The Icotinib hydrochloride used in this study was of Crystalline Form I disclosed by the WO2010/003313. Polymorph Form II of Icotinib phosphate and Icotinib hydrochloride were ground to fine particles. The material content (purity) was not less than 99.0%. Sodium carboxymethyl cellulose was medical supply graded.
Experimental animals: SD rats were divided to an Icotinib hydrochloride group and a Polymorph Form II group, with both groups consisting of half males and half females.
Pharmaceutical preparation: the amount of each compound was weighed and then sodium carboxymethyl cellulose was added to result in the test compound's concentration of 0.5%. The solid mixture was then added to prepare a suspension thereof at a final concentration of […] in water.
Administration and sample collection: each suspension was administered orally to fasted SD rats at a dose equivalent to 50 mg/kg Icotinib in a dose volume of 5 ml/kg. 0.4 ml of blood was collected in EDTA-K pre anticoagulant tubes at time intervals of 0.5, 1, 1.5, 2, 4, 6, 8 and 24 hrs after the administration of the test compound, centrifuged at 3000 rpm for 10 minutes, and 120 μL plasma was collected and kept in cold storage.
Samples were analyzed by high performance liquid chromatography. The chromatographic conditions utilized C18-silane bonded silica as stationary phase, 0.02 mol/L of sodium dihydrogen phosphate in […] (40:60, using sodium hydroxide solution to adjust pH to 5.0) as the mobile phase and a detection wavelength of 334 nm. PK profile comparison of Crystalline Form I of Icotinib Hydrochloride and Polymorph Form II of Icotinib phosphate was summarized in Table 1 and FIG. 5.

Setting [1] is: male, SD, rat, po, 50 mg/kg, male SD rats.
The mark [2] stands for this setting: female, SD, rat, po, 50 mg/kg, female SD rats.

The structures appear in SMILES notation. Where a name gives a salt, the structure may show the parent alone. Read-outs that look alike come from different tables or passages of the source.

By Cmax is commonly meant the maximum level reached in the sampled fluid or tissue. Broadly, the Tmax is the time from dosing to the highest level. The term AUC(0-inf) denotes total exposure, with the tail of the curve extrapolated. In general, half-life refers to the time in which the quantity being followed falls by half.

Regarding `C#Cc1cccc(Nc2ncnc3cc4c(cc23)OCCOCCOCCO4)c1` [Icotinib Phosphate polymorph form II, Icotinib phosphate], for the setting “female SD rats”, the “AUC(0-24)” value came out at 155200 ± 20200 ng·h/mL, the “AUC(0-∞)” value was found to be 156700 ± 17800 ng·h/mL, the Cmax turned out to be 13100 ± 2400 ng/mL and the T1/2 was 2.9 ± 0.4 h. Moreover, the Tmax (female SD rats) was determined as 4.7 ± 1.2 h. Where the note is “male SD rats”, the T1/2 was 2.6 ± 0.2 h and the Tmax is 2.3 ± 1.5 h. In addition, under setting [1], the AUC(0-inf) worked out at 28700 ± 8100 ng·h/mL and the AUC(0-t) is 28600 ± 8100 ng·h/mL.

As to `C#Cc1cccc(Nc2ncnc3cc4c(cc23)OCCOCCOCCO4)c1` [Icotinib hydrochloride], the T1/2 (female SD rats, hydrochloride) is recorded as 6.2 ± 3.5 h. Further, under setting [2], the AUC(0-inf) was 124000 ± 13000 ng·h/mL. Further, the AUC(0-t) under setting [2] came out at 113000 ± 24000 ng·h/mL. Besides, the Cmax was 10200 ± 1900 ng/mL (female, SD, rat, po, 50 mg/kg, female SD rats, read-out: Cmax) and 3400 ± 400 ng/mL (male, SD, rat, po, 50 mg/kg, male SD rats, read-out: Cmax). The time of peak concentration (Tmax) (female, SD, rat, po, 50 mg/kg, female SD rats, read-out: Tmax) is 3 ± 1.7 h and the time of peak concentration (Tmax) (male, SD, rat, po, 50 mg/kg, male SD rats, read-out: Tmax) turned out to be 2.3 ± 3.2 h. Further, the “AUC(0-24)” value (male SD rats, hydrochloride) stood at 19000 ± 7100 ng·h/mL. The “AUC(0-∞)” value (male SD rats, hydrochloride) amounted to 19100 ± 7200 ng·h/mL. For the same molecule, the half-life under setting [1] is 2.9 ± 0.4 h.

These data come from US9688687B2, “Polymorphic forms of icotinib phosphate and uses thereof” (BETTA PHARMACEUTICALS CO., LTD., priority 2013, dated 2017).
